According to US20260015358A1, “BICYCLIC DERIVATIVES, COMPOSITIONS AND USES THEREOF” (Danatlas Pharmaceuticals Co., Ltd., priority 2023, published 2026):

What was measured:
[1] = target: T1, WRN [UniPro: Q14191 (WRN_HUMAN), N500-C946] (Homo sapiens (Human), UniProt Q14191); assay: WRN ATPase assay (ADP-Glo); format: biochemical; details: WRN enzymatic activity assay
[2] = target: T1, WRN [UniPro: Q14191 (WRN_HUMAN), N500-C946]; assay: WRN unwinding assay (FORKF DNA, fluorescence); format: biochemical; details: Table 14

T1 sequence (Q14191 500-946): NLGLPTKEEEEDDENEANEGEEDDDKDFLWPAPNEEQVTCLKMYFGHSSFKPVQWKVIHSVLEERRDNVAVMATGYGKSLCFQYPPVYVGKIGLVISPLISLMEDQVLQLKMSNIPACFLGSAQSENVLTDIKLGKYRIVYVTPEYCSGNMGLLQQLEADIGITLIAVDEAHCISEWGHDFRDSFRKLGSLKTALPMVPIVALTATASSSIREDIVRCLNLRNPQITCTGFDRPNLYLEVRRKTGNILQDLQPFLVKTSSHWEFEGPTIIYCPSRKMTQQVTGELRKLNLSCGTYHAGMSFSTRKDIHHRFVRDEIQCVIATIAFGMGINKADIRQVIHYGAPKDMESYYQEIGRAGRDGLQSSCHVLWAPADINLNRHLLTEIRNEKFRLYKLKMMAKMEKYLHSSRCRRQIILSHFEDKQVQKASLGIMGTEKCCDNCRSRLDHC

CCc1c(N2CCN(C(=O)CNC(=O)c3cnon3)CC2)c(=O)n2nc(C3=CCOCC3)nc2n1CC(=O)Nc1ccc(C(F)(F)F)cc1Cl [Example 384, N-(2-(4-(4-(2-((2-Chloro-4-(trifluoromethyl)phenyl)amino)-2-oxoethyl)-2-(3,6-dihydro-2H-pyran-4-yl)-5-ethyl-7-oxo-4,7-dihydro-[1,2,4]triazolo[1,5-a]pyrimidin-6-yl)piperazin-1-yl)-2-oxoethyl)-1,2,5-oxadiazole-3-carboxamide]
IC50 [1]: < 0.1 µM
IC50 [2]: < 0.1 µM

CCNc1ccc(F)c(C(=O)NCC(=O)N2CCN(c3c(CC)n(CC(=O)Nc4ccc(C(F)(F)F)cc4Cl)c4nc(C5=CCOCC5)nn4c3=O)CC2)c1 [Example 374, N-(2-(4-(4-(2-((2-Chloro-4-(trifluoromethyl)phenyl)amino)-2-oxoethyl)-2-(3,6-dihydro-2H-pyran-4-yl)-5-ethyl-7-oxo-4,7-dihydro-[1,2,4]triazolo[1,5-a]pyrimidin-6-yl)piperazin-1-yl)-2-oxoethyl)-5-(ethylamino)-2-fluorobenzamide]
IC50 [1]: < 0.1 µM
IC50 [2]: < 0.1 µM

CCc1c(N2CCN(C(=O)c3[nH]ncc3C(F)(F)F)CC2)c(=O)n2nc(C3=CCOCC3)nc2n1CC(=O)Nc1ccc(C(F)(F)F)cc1Cl [Example 19, N-(2-Chloro-4-(trifluoromethyl)phenyl)-2-(2-(3,6-dihydro-2H-pyran-4-yl)-5-ethyl-7-oxo-6-(4-(4-(trifluoromethyl)-1H-pyrazole-5-carbonyl)piperazin-1-yl)-[1,2,4]triazolo[1,5-a]pyrimidin-4(7H)-yl)acetamide]
IC50 [1]: > 1 µM
IC50 [2]: > 1 µM

CCc1c(N2CCN(C(=O)CNC(=O)N3CCc4cccc(F)c43)CC2)c(=O)n2nc(C3=CCOCC3)nc2n1CC(=O)Nc1ccc(C(F)(F)F)cc1Cl [Example 193, N-(2-(4-(4-(2-((2-Chloro-4-(trifluoromethyl)phenyl)amino)-2-oxoethyl)-2-(3,6-dihydro-2H-pyran-4-yl)-5-ethyl-7-oxo-4,7-dihydro-[1,2,4]triazolo[1,5-a]pyrimidin-6-yl)piperazin-1-yl)-2-oxoethyl)-7-fluoroindoline-1-carboxamide]
IC50 [1]: < 0.1 µM
IC50 [2]: < 0.1 µM

CCc1c(N2CCN(C(=O)CNC(=O)c3cncc(O)c3)CC2)c(=O)n2nc(C3=CCOCC3)nc2n1CC(=O)Nc1ccc(C(F)(F)F)cc1Cl [Example 281, N-(2-(4-(4-(2-((2-Chloro-4-(trifluoromethyl)phenyl)amino)-2-oxoethyl)-2-(3,6-dihydro-2H-pyran-4-yl)-5-ethyl-7-oxo-4,7-dihydro-[1,2,4]triazolo[1,5-a]pyrimidin-6-yl)piperazin-1-yl)-2-oxoethyl)-5-hydroxynicotinamide]
IC50 [1]: < 0.1 µM
IC50 [2]: < 0.1 µM

CCc1c(N2CCN(C(=O)CNC(=O)c3ccc(OC)cc3)CC2)c(=O)n2nc(C3=CCOCC3)nc2n1CC(=O)Nc1ccc(C(F)(F)F)cc1Cl [Example 119, N-(2-(4-(4-(2-((2-Chloro-4-(trifluoromethyl)phenyl)amino)-2-oxoethyl)-2-(3,6-dihydro-2H-pyran-4-yl)-5-ethyl-7-oxo-4,7-dihydro-[1,2,4]triazolo[1,5-a]pyrimidin-6-yl)piperazin-1-yl)-2-oxoethyl)-4-methoxybenzamide]
IC50 [1]: < 0.1 µM
IC50 [2]: < 0.1 µM

CCc1c(N2CCN(C(=O)CNc3ncccn3)CC2)c(=O)n2nc(C3=CCOCC3)nc2n1CC(=O)Nc1ccc(C(F)(F)F)cc1Cl [Example 207, N-(2-Chloro-4-(trifluoromethyl)phenyl)-2-(2-(3,6-dihydro-2H-pyran-4-yl)-5-ethyl-7-oxo-6-(4-(pyrimidin-2-ylglycyl)piperazin-1-yl)-[1,2,4]triazolo[1,5-a]pyrimidin-4(7H)-yl)acetamide]
IC50 [1]: 0.1 to 1 µM
IC50 [2]: 0.1 to 1 µM

CCc1c(N2CCN(C(=O)CNS(C)(=O)=O)CC2)c(=O)n2nc(C3=CCOCC3)nc2n1CC(=O)Nc1ccc(C(F)(F)F)cc1Cl [Example 170, N-(2-Chloro-4-(trifluoromethyl)phenyl)-2-(2-(3,6-dihydro-2H-pyran-4-yl)-5-ethyl-6-(4-((methylsulfonyl)glycyl)piperazin-1-yl)-7-oxo-[1,2,4]triazolo[1,5-a]pyrimidin-4(7H)-yl)acetamide]
IC50 [1]: 0.1 to 1 µM
IC50 [2]: 0.1 to 1 µM

CCc1c(N2CCN(C(=O)CNC(=O)c3cccs3)CC2)c(=O)n2nc(C3=CCOCC3)nc2n1CC(=O)Nc1ccc(C(F)(F)F)cc1Cl [Example 386, N-(2-(4-(4-(2-((2-Chloro-4-(trifluoromethyl)phenyl)amino)-2-oxoethyl)-2-(3,6-dihydro-2H-pyran-4-yl)-5-ethyl-7-oxo-4,7-dihydro-[1,2,4]triazolo[1,5-a]pyrimidin-6-yl)piperazin-1-yl)-2-oxoethyl)thiophene-2-carboxamide]
IC50 [1]: < 0.1 µM
IC50 [2]: < 0.1 µM

CCc1c(N2CCN(C(=O)C(=O)Nc3ccn[nH]3)CC2)c(=O)n2nc(C3=CCOCC3)nc2n1CC(=O)Nc1ccc(C(F)(F)F)cc1Cl [Example 333, 2-(4-(4-(2-((2-Chloro-4-(trifluoromethyl)phenyl)amino)-2-oxoethyl)-2-(3,6-dihydro-2H-pyran-4-yl)-5-ethyl-7-oxo-4,7-dihydro-[1,2,4]triazolo[1,5-a]pyrimidin-6-yl)piperazin-1-yl)-2-oxo-N-(1H-pyrazol-5-yl)acetamide]
IC50 [1]: < 0.1 µM
IC50 [2]: < 0.1 µM

CCc1c(N2CCN(C(=O)c3ncc4nc(Cl)sc4c3O)CC2)c(=O)n2nc(C3=CCOCC3)nc2n1CC(=O)Nc1ccc(C(F)(F)F)cc1Cl [Example 196, N-(2-Chloro-4-(trifluoromethyl)phenyl)-2-(6-(4-(2-chloro-7-hydroxythiazolo[4,5-c]pyridine-6-carbonyl)piperazin-1-yl)-2-(3,6-dihydro-2H-pyran-4-yl)-5-ethyl-7-oxo-[1,2,4]triazolo[1,5-a]pyrimidin-4(7H)-yl)acetamide]
IC50 [1]: < 0.1 µM
IC50 [2]: < 0.1 µM

CCc1c(N2CCN(C(=O)CNC(=O)c3csc(C)n3)CC2)c(=O)n2nc(C3=CCOCC3)nc2n1CC(=O)Nc1ccc(C(F)(F)F)cc1Cl [Example 105, N-(2-(4-(4-(2-((2-Chloro-4-(trifluoromethyl)phenyl)amino)-2-oxoethyl)-2-(3,6-dihydro-2H-pyran-4-yl)-5-ethyl-7-oxo-4,7-dihydro-[1,2,4]triazolo[1,5-a]pyrimidin-6-yl)piperazin-1-yl)-2-oxoethyl)-2-methylthiazole-4-carboxamide]
IC50 [1]: 0.1 to 1 µM
IC50 [2]: < 0.1 µM

CCc1c(N2CCN(C(=O)CNC(=O)c3nccs3)CC2)c(=O)n2nc(N3CCOCC3)nc2n1CC(=O)Nc1ccc(C(F)(F)F)cc1Cl [Example 248, N-(2-(4-(4-(2-((2-Chloro-4-(trifluoromethyl)phenyl)amino)-2-oxoethyl)-5-ethyl-2-morpholino-7-oxo-4,7-dihydro-[1,2,4]triazolo[1,5-a]pyrimidin-6-yl)piperazin-1-yl)-2-oxoethyl)thiazole-2-carboxamide]
IC50 [1]: < 0.1 µM
IC50 [2]: < 0.1 µM

[2H]C([2H])(NC(=O)c1ccccc1F)C(=O)N1CCN(c2c(CC)n(CC(=O)Nc3ccc(C(F)(F)F)cc3Cl)c3nc(N4CCOCC4)nn3c2=O)CC1 [Example 138, N-(2-(4-(4-(2-((2-Chloro-4-(trifluoromethyl)phenyl)amino)-2-oxoethyl)-5-ethyl-2-morpholino-7-oxo-4,7-dihydro-[1,2,4]triazolo[1,5-a]pyrimidin-6-yl)piperazin-1-yl)-2-oxoethyl-1,1-d2)-2-fluorobenzamide]
IC50 [1]: < 0.1 µM
IC50 [2]: < 0.1 µM
